Measured values taken from patent US20230087196A1, “Application of circIKBKB Inhibitors and Test Reagents thereof in Diagnosis, Treatment and Prognosis Kits for Breast Cancer Bone Metastasis” (SUN YAT-SEN UNIVERSITY CANCER CENTER, priority 2021, published 2023).

How the values were obtained:
SCP2 cells [1] = test: In vivo bone metastasis prevention model: SCP2 cells into left ventricle of nude mice, eIF4A3-IN-2 intragastric from the second day; conditions: 1 mg/kg intragastric from the second day after SCP2 injection, vs vehicle
Experimental: Experiment 2: SCP2 cells were injected into the left ventricle of nude mice (1*10^6 cells/mouse), and eIF4A3-IN-2 (1 mg/kg) was administered to the mice by intragastric administration from the second day. The mice were sacrificed after 60 days, and hindlimbs of the mice were taken for μCT analysis, H&E and TRAP staining.

SCP2 cells [2] = test: In vivo established bone metastasis model: SCP2 cells into left ventricle of nude mice, eIF4A3-IN-2 started when bone-metastatic tumors formed; conditions: 1 mg/kg intragastric, started when BLI signal reached 2×10^7 p/sec/cm^2/sr, after 5 weeks treatment, vs vehicle
Experimental: Experiment 3: SCP2 cells were injected into the left ventricle of nude mice (1*10^6 cells/mouse). eIF4A3-IN-2 (1 mg/kg) treatment via intragastric administration was started when bioluminescence signal of bone-metastatic tumors reached 2×10^7 p/sec/cm^2/sr. The mice were sacrificed after 60 days, and the hindlimbs of the mice were taken for μCT analysis, H&E and TRAP staining.

With `O=C(c1cnn2cc(Br)ccc12)N1CCN(C(=O)c2ccc(Br)cc2)[C@@H](c2ccc(Cl)cc2)C1` [eIF4A3-IN-2] the “number of TRAP+-osteoclasts in bone surface area” value (SCP2 cells [1]) was “less”, the “onsets of bone-metastases and bone-metastasis burden” value (SCP2 cells [1]) was “significantly delayed” and the osteolytic areas (SCP2 cells [1]) was “less”. For the same molecule, the bone-metastatic tumor burden (SCP2 cells [2]) was “decreased” and the “onsets of bone metastases” value (SCP2 cells [2]) was “dramatically reduced”.
